Laboratory results reported in patent US20150297672A1, “Alpha- and gamma-MSH analogues” (TXP Pharma GmbH, priority 2014, published 2015).

Legend:
human MC1r [1] = molecular target: T1, human MC1r (Homo sapiens, UniProt Q01726); test: Test 3: receptor efficacy, cAMP enzyme immunoassay in stably transfected HEK cells expressing the human MC1r; type: cell-based; set-up: expressed in transfected cells; details: for Emax: HEK293, IBMX present, read-out: maximal efficacy Emax (max efficacy expressed as percent of αMSH); for EC50: IBMX present
Description: The immune modulating effects of melanocortins are mediated through MC1r and/or MC3r stimulation on immune competent cells in tissues, organs and plasma. MC1r and/or MC3r are expressed in immune competent cells including monocytes, macrophages, neutrophils t-cells and dendritic cells. Stimulation of the MCr1 and/or MC3r is associated with attenuation of cytokine production and activation of pro-resolving effects. The binding affinity and the receptor efficacy (alternative expression is potency) of a given melanocortin together, in some embodiments, makes up the overall efficacy of a given compound.
Alternatively MCR1 receptor efficacy was tested in stably transfected HEK cells expressing the human MC1r. Cells were grown in Dulbecco's modified Eagle's medium 1885 supplemented with 10% fetal calf serum, 2 mm glutamine, and 0.01 mg/ml gentamicin. The expression plasmids containing the cDNAs encoding the wild-type or the mutated receptors were expressed after transfection according to the calcium phosphate precipitation method. The cells were kept frozen until the experiments where the cells was grown in RPMI 1640 medium supplemented with 2 mm 1-glutamine adjusted to contain 1.5 g/liter sodium bicarbonate, 4.5 g/liter glucose, 10 mm HEPES, 1.0 mm sodium pyruvate, and 10% fetal bovine serum.
Cells (2.5×10^5 cells per well) were incubated for 15 min at 37° C. in 1 ml of freshly prepared binding buffer supplemented with 5.10-4 M of the non-specific phosphodiesterase inhibitor 3-Isobutyl-1-methylxanthine (IBMX), 40 μg/ml bacitracin, and various concentrations of test compound. After incubation, cells were placed on ice, medium was removed, and cells lysed. Measurement of cAMP in the samples was conducted by use of a commercial cAMP Enzyme Immunoassay kit from Cayman Chemicals (Cat. No 581001). All cAMP concentrations were expressed relative to the total number of cells in the individual samples.

human MC1r [2] = molecular target: T1, human MC1r; test: Test 2: receptor efficacy, cAMP production (HTRF) in CHO-K1 cells expressing MC1r; details: nM of cAMP, IBMX 1 mM
Description: CHO-Kl cells expressing either the MC1r or the MC3r grown in media without antibiotic were detached by gentle flushing with PBS-EDTA (5 mM EDTA), recovered by centrifugation and resuspended in assay buffer (KRH: 5 mM KCl, 1.25 mM MgSO4, 124 mM NaCl, 25 mM HEPES, 13.3 mM Glucose, 1.25 mM KH2PO4, 1.45 mM CaC12, 0.5 g/1 BSA).
12 μl of cells were mixed with 12 μl of the test compound at increasing concentrations in 96 wells plates and then incubated 30 min at room temperature. cAMP production was determined after addition of a lysis buffer and 1 hour incubation, by use of competitive immunoassay using cryptate-labeled anti-cAMP and d2-labeled cAMP (HTRF kit from CisBio) with Delta F percentage values calculated according to the manufacturer specification. Dose response curves were performed in parallel with test compounds, and reference compounds.
The HTRF technology is a titration assay based on a competition between labeled cAMP (exogenous) and cAMP produced by the cell after activation of the MCr. The dynamic range of the assay was 3-4 fold meaning that the linear range (which enables conversion from raw data to nM of cAMP) is within that range.
Data is presented as mean values.

[3] = system: normal human lung fibroblasts (NHLF); details: TGFβ1-induced NHLF, at higher doses; U.S. provisional application 61/785,631; cited from earlier work

T1 sequence (Q01726 whole entry): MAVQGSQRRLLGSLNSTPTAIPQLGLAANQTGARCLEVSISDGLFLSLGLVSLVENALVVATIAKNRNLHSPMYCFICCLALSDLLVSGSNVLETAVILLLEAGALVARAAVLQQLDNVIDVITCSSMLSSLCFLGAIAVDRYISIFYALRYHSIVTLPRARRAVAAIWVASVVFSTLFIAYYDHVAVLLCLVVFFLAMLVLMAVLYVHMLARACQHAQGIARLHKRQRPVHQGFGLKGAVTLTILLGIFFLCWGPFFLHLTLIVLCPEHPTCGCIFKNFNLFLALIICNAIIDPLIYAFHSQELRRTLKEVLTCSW

Emax (human MC1r [1]) [%]	EC50 (human MC1r [1]) [nM]	maximal efficacy (Emax) (human MC1r [2]) [nM]	Compound	effect on ECM collagen [3]
72 ± 5	2.12	~3	CSCC[C@H](NC(=O)[C@H](CO)NC(=O)[C@H](Cc1ccc(O)cc1)NC(=O)[C@H](CO)NC(=O)[C@H](CCCCN)NC(=O)[C@H](CCCCN)NC(=O)[C@H](CCCCN)NC(=O)[C@H](CCCCN)NC(=O)[C@H](CCCCN)NC(=O)[C@H](CCCCN)NC(C)=O)C(=O)N[C@@H](CCC(=O)O)C(=O)N[C@@H](Cc1c[nH]cn1)C(=O)N[C@@H](Cc1ccccc1)C(=O)N[C@@H](CCCNC(=N)N)C(=O)N[C@@H](Cc1c[nH]c2ccccc12)C(=O)NCC(=O)N[C@@H](CCCCN)C(=O)N1CCC[C@H]1C(=O)N[C@H](C(N)=O)C(C)C [Ac(Lys)6-αMSH]	
			ACTH: Adrenocorticotropic hormone, the native ligand to the type 2 receptor (MC2r) (SYSMEHFRWGKPVGKKRRPVKVYPNGAEDESAEAFPLEF; Corticotropin; UniProt P01189 138-176, looked up)	statistically significant reduction in ECM collagen
62 ± 8	1.35		CCCC[C@H](NC(=O)[C@H](CO)NC(=O)[C@H](Cc1ccc(O)cc1)NC(=O)[C@H](CO)NC(=O)[C@H](CCCCN)NC(=O)[C@H](CCCCN)NC(=O)[C@H](CCCCN)NC(=O)[C@H](CCCCN)NC(=O)[C@H](CCCCN)NC(=O)[C@H](CCCCN)NC(C)=O)C(=O)N[C@@H](CCC(=O)O)C(=O)N[C@@H](Cc1c[nH]cn1)C(=O)N[C@H](Cc1ccccc1)C(=O)N[C@@H](CCCNC(=N)N)C(=O)N[C@@H](Cc1c[nH]c2ccccc12)C(=O)NCC(=O)N[C@@H](CCCCN)C(=O)N1CCC[C@H]1C(=O)N[C@H](C(N)=O)C(C)C [Ac(Lys)6-NDP-αMSH, Ac(Lys)6-Ser-Tyr-Ser-Nle Glu-His-(D-Phe)-Arg-Trp-Gly-Lys-Pro-Val-NH2]	
		~3	CSCC[C@H](NC(=O)[C@H](CO)NC(=O)[C@H](Cc1ccc(O)cc1)NC(=O)[C@H](CO)NC(=O)[C@H](CCCCNC(=O)[C@H](CCCCN)NC(=O)[C@H](CCCCN)NC(C)=O)NC(C)=O)C(=O)N[C@@H](CCC(=O)O)C(=O)N[C@@H](Cc1c[nH]cn1)C(=O)N[C@@H](Cc1ccccc1)C(=O)N[C@@H](CCCNC(=N)N)C(=O)N[C@@H](Cc1c[nH]c2ccccc12)C(=O)NCC(=O)N[C@@H](CCCCN)C(=O)N1CCC[C@H]1C(=O)N[C@H](C(N)=O)C(C)C [α-MSH analogue #1]	
